Earlier results on one compound are cited in PMC4381553, “Acute and Chronic Toxicity, Cytochrome P450 Enzyme Inhibition, and hERG Channel Blockade Studies with a Polyherbal, Ayurvedic Formulation for Inflammation” (BioMed Research International, 2015).

Read-outs that look alike come from different tables or passages of the source.

For data set [1], the system named is CYP3a. Particulars: only at very high dose (200 μg/mL), rat liver microsome.
Data set [2] concerns CYP3a. Particulars: only at very high dose (200 μg/mL), human liver microsome.

With `CC1=C(CO)C(=O)O[C@@H]([C@@H](C)[C@H]2CC[C@H]3[C@@H]4CC=C5C[C@@H](O[C@@H]6O[C@H](CO[C@@H]7O[C@H](CO)[C@@H](O)[C@H](O)[C@H]7O)[C@@H](O)[C@H](O)[C@H]6O)C[C@H](O)[C@]5(C)[C@H]4CC[C@]23C)C1` [Withanoside IV], the “inhibitory activity of CYP3a” value in the data set with CYP3a [1] and in the data set on CYP3a [2] was “some inhibitory activity” each time.
